Source: patent US20160159789A1, “SUBSTITUTED PYRAZOLOPYRIDINES” (BAYER PHARMA AKTIENGESELLSCHAFT, priority 2013, published 2016)

target: T1, human full-length MKNK1 (Homo sapiens, UniProt Q9BUB5, T385D); assay: MKNK1 kinase high ATP assay (TR-FRET); format: biochemical; details: high ATP (2 mM final), 15 min preincubation with enzyme, GST-MKNK1 (T344D)
T1 construct: purchased Carna Biosciences 02-145; host or cells: insect cells (baculovirus expression system)
Method in brief: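 GST-tagged full-length human MKNK1 from insect cells, preincubated 15 min with compound at 22° C in HEPES pH 7.5/MgCl2/DTT buffer, then reacted 30 min with 2 mM ATP and 0.06 μM biotinylated peptide (final). Phosphopeptide detected by TR-FRET (anti-pS6 pSer236/Eu-ProteinG, streptavidin-XL665), 665/620 ratio normalised to no-enzyme and no-inhibitor controls.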

T1 sequence (Q9BUB5 1-424 isoform Q9BUB5-2 T344D): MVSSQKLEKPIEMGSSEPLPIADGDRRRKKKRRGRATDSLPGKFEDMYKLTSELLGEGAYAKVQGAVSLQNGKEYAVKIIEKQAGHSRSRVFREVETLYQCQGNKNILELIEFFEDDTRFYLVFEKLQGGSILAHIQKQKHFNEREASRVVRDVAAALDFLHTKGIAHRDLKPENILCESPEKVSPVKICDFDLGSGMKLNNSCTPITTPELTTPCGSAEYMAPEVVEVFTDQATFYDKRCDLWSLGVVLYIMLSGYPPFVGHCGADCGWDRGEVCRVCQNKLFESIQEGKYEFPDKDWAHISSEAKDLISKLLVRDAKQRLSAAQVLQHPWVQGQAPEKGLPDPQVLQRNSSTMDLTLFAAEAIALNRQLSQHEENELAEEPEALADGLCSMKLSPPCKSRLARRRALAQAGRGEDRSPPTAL

Structure (SMILES) | IC50 [nM]
O=C([C@H]1CCc2c(sc3ncnc(Nc4cc5cn[nH]c5cn4)c23)C1)N1CC2(COC2)C1 [Example 83, 2-Oxa-6-azaspiro[3.3]hept-6-yl[(7S)-4-(1H-pyrazolo[3,4-c]pyridin-5-ylamino)-5,6,7,8-tetrahydro[1]benzothieno[2,3-d]pyrimidin-7-yl]methanone] | 6.9
CN(C)C(=O)[C@H]1CCc2c(sc3ncnc(Nc4cc5cn[nH]c5nc4O)c23)C1 [Example 54, (7S)-4-[(6-Hydroxy-1H-pyrazolo[3,4-b]pyridin-5-yl)amino]-N,N-dimethyl-5,6,7,8-tetrahydro[1]benzothieno[2,3-d]pyrimidine-7-carboxamide] | 6.9
CN(C)CCN(C)C(=O)c1[nH]c2ncnc(Nc3cc4cn[nH]c4nc3O)c2c1Br [Example 63, 5-Bromo-N-[2-(dimethylamino)ethyl]-4-[(6-hydroxy-1H-pyrazolo[3,4-b]pyridin-5-yl)amino]-N-methyl-7H-pyrrolo[2,3-d]pyrimidine-6-carboxamide] | 14.6
O=C([C@H]1CCc2c(sc3ncnc(Nc4cnc5[nH]ncc5c4)c23)C1)N1CCOCC1 [Example 102, Morpholin-4-yl[(7S)-4-(1H-pyrazolo[3,4-b]pyridin-5-ylamino)-5,6,7,8-tetrahydro[1]benzothieno[2,3-d]pyrimidin-7-yl]methanone] | 27
CN(CCC(F)(F)F)C(=O)[C@H]1CCc2c(sc3ncnc(Nc4cc5cn[nH]c5nc4O)c23)C1 [Example 139, (7S)-4-[(6-Hydroxy-1H-pyrazolo[3,4-b]pyridin-5-yl)amino]-N-methyl-N-(3,3,3-trifluoropropyl)-5,6,7,8-tetrahydro[1]benzothieno[2,3-d]pyrimidine-7-carboxamide] | 4.7
CN(C)[C@H]1CCN(C(=O)[C@H]2CCc3c(sc4ncnc(Nc5cnc6[nH]ncc6c5)c34)C2)C1 [Example 100, [(3S)-3-(Dimethylamino)pyrrolidin-1-yl][(7S)-4-(1H-pyrazolo[3,4-b]pyridin-5-ylamino)-5,6,7,8-tetrahydro[1]benzothieno[2,3-d]pyrimidin-7-yl]methanone] | 3.7
CCCN(CCOC)C(=O)[C@H]1CCc2c(sc3ncnc(Nc4cc5cn[nH]c5nc4O)c23)C1 [Example 50, (7S)-4-[(6-Hydroxy-1H-pyrazolo[3,4-b]pyridin-5-yl)amino]-N-(2-methoxyethyl)-N-propyl-5,6,7,8-tetrahydro[1]benzothieno[2,3-d]pyrimidine-7-carboxamide] | 2.6
CN1CCN(C(=O)C2CCc3[nH]c4ncnc(Nc5cc6cn[nH]c6cn5)c4c3C2)CC1 (racemic) [Example 33, (RS)-(4-Methylpiperazin-1-yl)[4-(1H-pyrazolo[3,4-c]pyridin-5-ylamino)-6,7,8,9-tetrahydro-5H-pyrimido[4,5-b]indol-6-yl]methanone] | 90.4
O=C(c1cc2c(Nc3cc4cn[nH]c4cn3)ncnc2[nH]1)N1CCCCC1 [Example 20, Piperidin-1-yl[4-(1H-pyrazolo[3,4-c]pyridin-5-ylamino)-7H-pyrrolo[2,3-d]pyrimidin-6-yl]methanone] | 7.8
CCCN(C)C(=O)[C@H]1CCc2c(sc3ncnc(Nc4cnc5[nH]ncc5c4)c23)C1 [Example 93, (7S)—N-Methyl-N-propyl-4-(1H-pyrazolo[3,4-b]pyridin-5-ylamino)-5,6,7,8-tetrahydro[1]benzothieno[2,3-d]pyrimidine-7-carboxamide] | 13.5
CCc1[nH]c2ncnc(Nc3cc4cn[nH]c4cn3)c2c1C [Example 8, N-(6-Ethyl-5-methyl-7H-pyrrolo[2,3-d]pyrimidin-4-yl)-1H-pyrazolo[3,4-c]pyridin-5-amine] | 11.5
CCc1c[nH]c2ncnc(Nc3cc4cn[nH]c4cn3)c12 [Example 6, N-(5-Ethyl-7H-pyrrolo[2,3-d]pyrimidin-4-yl)-1H-pyrazolo[3,4-c]pyridin-5-amine] | 7.3
O=C(c1[nH]c2ncnc(Nc3cnc4[nH]ncc4c3)c2c1Br)N1CCOCC1 [Example 74, [5-Bromo-4-(1H-pyrazolo[3,4-b]pyridin-5-ylamino)-7H-pyrrolo[2,3-d]pyrimidin-6-yl](morpholin-4-yl)methanone] | 140
COc1nc2[nH]ncc2cc1Nc1ncnc2sc3c(c12)CC[C@H](C(=O)N(C)C)C3 [Example 53, (7S)-4-[(6-Methoxy-1H-pyrazolo[3,4-b]pyridin-5-yl)amino]-N,N-dimethyl-5,6,7,8-tetrahydro[1]benzothieno[2,3-d]pyrimidine-7-carboxamide] | 0.5
COCCN(C)C(=O)[C@H]1CCc2c(sc3ncnc(Nc4cnc5[nH]ncc5c4)c23)C1 [Example 96, (7S)—N-(2-Methoxyethyl)-N-methyl-4-(1H-pyrazolo[3,4-b]pyridin-5-ylamino)-5,6,7,8-tetrahydro[1]benzothieno[2,3-d]pyrimidine-7-carboxamide] | 18.8
